The results in this text go back to the NIST ThermoML archive (doi:10.1021/acs.jced.5b00662).

The structures appear in SMILES notation. “And” between values parts separate entries of the source, which are not always exact repeats. Equal values may be shown once. Numbers after ± are expanded uncertainties.

For the first series the following is noted: 283.15 K; 101.33 kPa; Liquid; Sing-around technique in a fixed-path interferometer.
The term speed of sound denotes how fast a sound wave travels through the sample. `OCCOCCOCCO` [triethylene glycol]: the speed of sound is listed as 1658.7 ± 1.6 m/s.
Still for that read-out and setting: in the case of `CCOCCOCCOCC` [diethylene glycol diethyl ether] it was 1303.4 ± 2.3 m/s; in that of `COCCOCCO` [2-(2-methoxyethoxy)ethanol], 1467.7 ± 1.6 m/s.
The same measure, in the same setting: in the case of `COCCOCCOCCOC` [2,5,8,11-tetraoxadodecane] it was 1401.4 ± 1.6 m/s; in that of `OCCO` [1,2-ethanediol], 1689.9 ± 1.3 m/s.

Staying with this series, now noted: 283.15 K; 101.33 kPa; Liquid; Vibrating tube method.
The term mass density denotes mass per unit of volume. With `OCCOCCOCCO` [triethylene glycol], the mass density worked out at 1131.3 ± 2 kg/m3.
On the same count and under the same terms, in the case of `CCOCCOCCOCC` [diethylene glycol diethyl ether] it was 917 ± 4.1 kg/m3; in that of `COCCOCCO` [2-(2-methoxyethoxy)ethanol], 1028.6 ± 2 kg/m3; in that of `COCCOCCOCCOC` [2,5,8,11-tetraoxadodecane], 994.1 ± 2 kg/m3.
Take `OCCO` [1,2-ethanediol]: the mass density was found to be 1120.2 ± 1 kg/m3.

The same series, now with this note: 288.15 K; 101.33 kPa; Liquid; Concentric cylinders viscometry.
The term viscosity denotes the resistance of a fluid to flow. Turning to `OCCOCCOCCO` [triethylene glycol], the viscosity is on record as 63.57 ± 2.6 mPa·s.
Still for that read-out and setting: in the case of `CCOCCOCCOCC` [diethylene glycol diethyl ether] it was 1.483 ± 0.062 mPa·s; in that of `COCCOCCO` [2-(2-methoxyethoxy)ethanol], 4.514 ± 0.18 mPa·s.
Take `COCCOCCOCCOC` [2,5,8,11-tetraoxadodecane]: the viscosity amounted to 2.414 ± 0.098 mPa·s.
For the compound `OCCO` [1,2-ethanediol], the viscosity turned out to be 26.8 ± 1.1 mPa·s.

Staying with this series, now noted: 288.15 K; 101.33 kPa; Liquid; Sing-around technique in a fixed-path interferometer.
Regarding `OCCOCCOCCO` [triethylene glycol], the speed of sound is reported as 1642.8 ± 1.6 m/s.
Still for that read-out and setting: in the case of `CCOCCOCCOCC` [diethylene glycol diethyl ether] it was 1283.2 ± 2.3 m/s; in that of `COCCOCCO` [2-(2-methoxyethoxy)ethanol], 1450.2 ± 1.6 m/s.
Still for that read-out and setting: in the case of `COCCOCCOCCOC` [2,5,8,11-tetraoxadodecane] it was 1381.4 ± 1.6 m/s; in that of `OCCO` [1,2-ethanediol], 1678.3 ± 1.3 m/s.

Staying with this series, now noted: 288.15 K; 101.33 kPa; Liquid; Vibrating tube method.
For `OCCOCCOCCO` [triethylene glycol], the mass density is 1128.6 ± 2 kg/m3 and 1127.4 ± 2 kg/m3.
The same measure, in the same setting: in the case of `CCOCCOCCOCC` [diethylene glycol diethyl ether] it was 914.4 ± 4.1 kg/m3 and 912.2 ± 4.1 kg/m3.
Same read-out and setting: in the case of `COCCOCCO` [2-(2-methoxyethoxy)ethanol] it was 1025.3 ± 2 kg/m3 and 1024.2 ± 2 kg/m3.
On the same count and under the same terms, in the case of `COCCOCCOCCOC` [2,5,8,11-tetraoxadodecane] it was 990.8 ± 2 kg/m3 and 989.4 ± 2 kg/m3; in that of `OCCO` [1,2-ethanediol], 1118.2 ± 1 kg/m3.

The series is the same for the next values; noted with them: 293.15 K; 101.33 kPa; Liquid; Concentric cylinders viscometry.
In the case of `OCCOCCOCCO` [triethylene glycol], the viscosity is given as 48.05 ± 1.9 mPa·s.
Turning to `CCOCCOCCOCC` [diethylene glycol diethyl ether], the viscosity is 1.353 ± 0.056 mPa·s.
On the same count and under the same terms, in the case of `COCCOCCO` [2-(2-methoxyethoxy)ethanol] it was 3.963 ± 0.16 mPa·s; in that of `COCCOCCOCCOC` [2,5,8,11-tetraoxadodecane], 2.162 ± 0.088 mPa·s; in that of `OCCO` [1,2-ethanediol], 21.2 ± 0.85 mPa·s.

The same series, now with this note: 293.15 K; 101.33 kPa; Liquid; Sing-around technique in a fixed-path interferometer.
Consider `OCCOCCOCCO` [triethylene glycol], for which the speed of sound is recorded as 1627.2 ± 1.6 m/s.
Same read-out and setting: the same measure for `CCOCCOCCOCC` [diethylene glycol diethyl ether]: 1263.1 ± 2.3 m/s; for `COCCOCCO` [2-(2-methoxyethoxy)ethanol]: 1432.7 ± 1.6 m/s.
On the same count and under the same terms, the same measure for `COCCOCCOCCOC` [2,5,8,11-tetraoxadodecane]: 1361.6 ± 1.5 m/s; for `OCCO` [1,2-ethanediol]: 1666.5 ± 1.3 m/s.

Still in this series, the particulars now being: 293.15 K; 101.33 kPa; Liquid; Vibrating tube method.
With `OCCOCCOCCO` [triethylene glycol], the mass density was 1124.6 ± 2 kg/m3 and 1123.5 ± 2 kg/m3.
Same read-out and setting: in the case of `CCOCCOCCOCC` [diethylene glycol diethyl ether] it was 909.6 ± 4.1 kg/m3 and 907.4 ± 4.1 kg/m3.
On the same count and under the same terms, in the case of `COCCOCCO` [2-(2-methoxyethoxy)ethanol] it was 1021 ± 2 kg/m3 and 1019.8 ± 2 kg/m3.
The same measure, in the same setting: the same measure for `COCCOCCOCCOC` [2,5,8,11-tetraoxadodecane]: 986 ± 2 kg/m3 and 984.6 ± 2 kg/m3.
Turning to `OCCO` [1,2-ethanediol], the mass density is 1114.6 ± 1 kg/m3 and 1113.3 ± 1 kg/m3.

The series is the same for the next values; noted with them: 298.15 K; 101.33 kPa; Liquid; Concentric cylinders viscometry.
As to `OCCOCCOCCO` [triethylene glycol], the viscosity was 37.27 ± 1.5 mPa·s.
On the same count and under the same terms, the same measure for `CCOCCOCCOCC` [diethylene glycol diethyl ether]: 1.254 ± 0.052 mPa·s; for `COCCOCCO` [2-(2-methoxyethoxy)ethanol]: 3.403 ± 0.14 mPa·s.
The same measure, in the same setting: in the case of `COCCOCCOCCOC` [2,5,8,11-tetraoxadodecane] it was 1.956 ± 0.079 mPa·s; in that of `OCCO` [1,2-ethanediol], 17.13 ± 0.69 mPa·s.

The same series, now with this note: 298.15 K; 101.33 kPa; Liquid; Sing-around technique in a fixed-path interferometer.
`OCCOCCOCCO` [triethylene glycol]: the speed of sound stood at 1611.5 ± 1.6 m/s.
Same read-out and setting: the same measure for `CCOCCOCCOCC` [diethylene glycol diethyl ether]: 1243.3 ± 2.3 m/s; for `COCCOCCO` [2-(2-methoxyethoxy)ethanol]: 1415.4 ± 1.6 m/s.
The same measure, in the same setting: in the case of `COCCOCCOCCOC` [2,5,8,11-tetraoxadodecane] it was 1342.1 ± 1.5 m/s; in that of `OCCO` [1,2-ethanediol], 1654.7 ± 1.3 m/s.

The series is the same for the next values; noted with them: 298.15 K; 101.33 kPa; Liquid; Vibrating tube method.
`OCCOCCOCCO` [triethylene glycol]: the mass density is 1119.7 ± 2 kg/m3 and 1120.7 ± 2 kg/m3.
Same read-out and setting: the same measure for `CCOCCOCCOCC` [diethylene glycol diethyl ether]: 902.6 ± 4.1 kg/m3 and 904.7 ± 4.1 kg/m3; for `COCCOCCO` [2-(2-methoxyethoxy)ethanol]: 1015.4 ± 2 kg/m3 and 1016.3 ± 2 kg/m3; for `COCCOCCOCCOC` [2,5,8,11-tetraoxadodecane]: 979.9 ± 2 kg/m3 and 981.5 ± 2 kg/m3.
For `OCCO` [1,2-ethanediol], the mass density was found to be 1111.1 ± 1 kg/m3.

The series is the same for the next values; noted with them: 303.15 K; 101.33 kPa; Liquid; Concentric cylinders viscometry.
Regarding `OCCOCCOCCO` [triethylene glycol], the viscosity was found to be 29.41 ± 1.2 mPa·s.
On the same count and under the same terms, the same measure for `CCOCCOCCOCC` [diethylene glycol diethyl ether]: 1.156 ± 0.048 mPa·s; for `COCCOCCO` [2-(2-methoxyethoxy)ethanol]: 3 ± 0.12 mPa·s.
Take `COCCOCCOCCOC` [2,5,8,11-tetraoxadodecane]: the viscosity came out at 1.777 ± 0.072 mPa·s.
In the case of `OCCO` [1,2-ethanediol], the viscosity stood at 14 ± 0.56 mPa·s.

The series is the same for the next values; noted with them: 303.15 K; 101.33 kPa; Liquid; Sing-around technique in a fixed-path interferometer.
For `OCCOCCOCCO` [triethylene glycol], the speed of sound was 1596.2 ± 1.6 m/s.
As for `CCOCCOCCOCC` [diethylene glycol diethyl ether], the speed of sound is 1223.4 ± 2.3 m/s.
Still for that read-out and setting: the same measure for `COCCOCCO` [2-(2-methoxyethoxy)ethanol]: 1398.1 ± 1.6 m/s.
The same measure, in the same setting: the same measure for `COCCOCCOCCOC` [2,5,8,11-tetraoxadodecane]: 1322.8 ± 1.5 m/s; for `OCCO` [1,2-ethanediol]: 1642.9 ± 1.3 m/s.
